In patent publication US10624968B2, “Compounds for treating cancer” (Bicycle Therapeutics Limited, priority 2017, dated 2020):
Each block holds one compound with its values, some of them ahead of it. Starred links: 1 amine or outer side, 2 acyl side, 3 side chain; linkers in the order of their positions; H or OH if unused. Positions of bridges follow the written chain, without caps; N, C: chain ends. Non-standard residues stand in square brackets, D forms with d. Residues, ends and D or L forms follow the SMILES beside them. ξ: configuration not given here. *: point of attachment. X3 = COc1cc2cc(c1Cl)N(C)C(=O)C[C@H](OC(=O)[C@H](C)N(C)C(=O)CCSCc1ccc(N*)cc1)[C@]1(C)O[C@H]1[C@H](C)[C@@H]1C[C@@](O)(NC(=O)O1)[C@H](OC)/C=C/C=C(\C)C2; TBMB = c1c(C[*:1])cc(C[*:3])cc1C[*:2]; Glutaryl = O=C(CCCC(=O)[*:2])[*:1]; ξ1Nal = NC(Cc1cccc2ccccc12)C(=O)O; Cit = NC(=O)NCCC[C@H](N)C(=O)O; ξY = NC(Cc1ccc(O)cc1)C(=O)O; ξTle = CC(C)(C)C(N)C(=O)O; ξF = NC(Cc1ccccc1)C(=O)O; ξE = NC(CCC(=O)O)C(=O)O; ξD = NC(CC(=O)O)C(=O)O; ξN = NC(=O)CC(N)C(=O)O; ξC = NC(CS)C(=O)O; βAla = NCCC(=O)O; ξA = CC(N)C(=O)O; Sar = CNCC(=O)O

Legend:
[1] = Tolerability (body weight) in LU-01-0486 NSCLC PDX model; type: in vivo, mouse; settings: dose not given; humane sacrifice of animals at day 24
Protocol: (§1) All the procedures related to animal handling, care and the treatment in the study were performed following the guidance of the Association for Assessment and Accreditation of Laboratory Animal Care (AAALAC). At the time of routine monitoring, the animals were daily checked for any effects of tumor growth and treatments on normal behavior such as mobility, food and water consumption (by looking only), body weight gain/loss (body weights were measured twice weekly), eye/hair matting and any other abnormal effect as stated in the protocol. Death and observed clinical signs were recorded on the basis of the numbers of animals within each subset.

LU-01-0486 PDX = test: Efficacy in MT1-MMP low-expressing LU-01-0486 NSCLC PDX model; type: in vivo, mouse; settings: dose not given
Protocol: The objective of this study was to evaluate the in vivo anti-tumor efficacy of I-1a in the treatment of MT1-MMP low-expressing LU-01-0486 PDX model in female Balb/C nude mice
Each mouse was inoculated subcutaneously at the right flank with LU-01-0486 of tumor fragment (30 mm^3) for tumor development. The treatments was started when the average tumor volume reaches 164 mm^3.
The major endpoint was to see if the tumor growth could be delayed or mice could be cured. Tumor size was measured two times weekly in two dimensions using a caliper, and the volume was expressed in mm^3 using the formula: V=0.5 a×b^2 where a and b are the long and short diameters of the tumor, respectively. […]
TGI was calculated for each group using the formula: TGI (%)=[1−(Ti−T0)/(Vi−V0)]×100; Ti is the average tumor volume of a treatment group on a given day, T0 is the average tumor volume of the treatment group on the day of treatment start, Vi is the average tumor volume of the vehicle control group on the same day with Ti, and V0 is the average tumor volume of the vehicle group on the day of treatment start.
A one-way ANOVA was performed to compare tumor volume among groups, and when a significant F-statistics (a ratio of treatment variance to the error variance) was obtained, comparisons between groups were carried out with Games-Howell test. All data were analyzed using Prism. […]

MT1-MMP = MT1-MMP (Homo sapiens, UniProt P50281); test: MT1-MMP fluorescent polarization competition; type: binding; settings: up to 20 μM
[2] = Mortality, morbidity and body weight in HT1080 xenograft study (Example 13); type: in vivo, mouse; settings: 10 mg/kg biw
Protocol: as §1, with “every day),” for “twice weekly),”
Body weight was monitored regularly as an indirect measure of toxicity.

Compound: CC(=O)O[C@@]12CO[C@@H]1C[C@H](O)[C@@]1(C)C(=O)[C@H](O)C3=C(C)[C@@H](OC(=O)[C@H](O)[C@@H](NC(=O)OC(C)(C)C)c4ccccc4)C[C@@](O)([C@@H](OC(=O)c4ccccc4)[C@H]21)C3(C)C [Docetaxel]
effect on body weight (in words) [1]: severe weight loss
inhibition of tumor growth (in words) (LU-01-0486 PDX): significant inhibition of tumor growth

inhibition in MT1-MMP fluorescent polarization competition (MT1-MMP): no inhibition
Compound: (B-Ala)-Sar10-ACVPCADFPIWYC (SEQ ID NO: 17) (AXXXXXXXXXXACVPCADFPIWYC; not fully specified; N-methyl; non-natural residues) [non-binding peptide]

Compound: COc1cc2cc(c1Cl)N(C)C(=O)C[C@H](OC(=O)[C@H](C)N(C)C(=O)CCSCc1ccc(NC(=O)[C@H](CCCNC(N)=O)NC(=O)[C@@H](NC(=O)CCCC(=O)NCCC(=O)N(C)CC(=O)N(C)CC(=O)N(C)CC(=O)N(C)CC(=O)N(C)CC(=O)N(C)CC(=O)N(C)CC(=O)N(C)CC(=O)N(C)CC(=O)N(C)CC(=O)NC(C)C(=O)NC3CSCc4cc5cc(c4)CSCC(NC(=O)C(C)NC(=O)C(Cc4cccc6ccccc46)NC(=O)C(CCC(=O)O)NC(=O)C(CC(N)=O)NC(=O)C(C)NC3=O)C(=O)NC(C)C(=O)NC(CC(=O)O)C(=O)NC(Cc3ccccc3)C(=O)NC(Cc3ccc(O)cc3)C(=O)NC(CC(=O)O)C(=O)NC(C(C)(C)C)C(=O)NC(C(N)=O)CSC5)C(C)C)cc1)[C@]1(C)O[C@H]1[C@H](C)[C@@H]1C[C@@](O)(NC(=O)O1)[C@H](OC)/C=C/C=C(\C)C2 (stereo partly drawn) [Compound I-7] ({X3-Cit-Val-Glutaryl-βAla}-[Sar][Sar][Sar][Sar][Sar][Sar][Sar][Sar][Sar][Sar][ξA][ξC][ξA][ξN][ξE][ξ1Nal][ξA][ξC][ξA][ξD][ξF][ξY][ξD][ξTle][ξC]-NH2; linker 12-18-25 via TBMB)
mice died during the dosing period [2]: 2/3
